From PMC9150106, “Phenyl Bis-Sulfonamide Keap1-Nrf2 Protein–Protein Interaction Inhibitors with an Alternative Binding Mode” (Journal of Medicinal Chemistry, 2022)
Converted amounts (≈) assume the structure as drawn. Structures can show the parent of a compound that is named as a salt.

How the values were obtained:
physchem = details: pH 7.4
[1] = molecular target: Keap1 Kelch domain protein (Homo sapiens, UniProt Q14145); details: 10 μM compound, 5 μM Keap1; Ti Keap1 + vehicle 61.3 °C
[2] = system: NQO1 enzymatic activity (Nrf2 transcriptional activity); assay: NQO1 enzyme activity assay in Hepa1c1c7 cells; type: cell-based, mouse; details: Hepa1c1c7, 24 h
[3] = system: Hepa1c1c7 mouse hepatoma cells; assay: Cytotoxicity seen in the NQO1 assay; type: cell-based
[4] = PAMPA, pH 7.4
[5] = system: ARPE19 retinal pigment epithelial cells; details: human
in vitro = details: human, Cytotoxicity IC50 concentration

Chain of Keap1 Kelch domain protein (Q14145 321-609 limits assumed): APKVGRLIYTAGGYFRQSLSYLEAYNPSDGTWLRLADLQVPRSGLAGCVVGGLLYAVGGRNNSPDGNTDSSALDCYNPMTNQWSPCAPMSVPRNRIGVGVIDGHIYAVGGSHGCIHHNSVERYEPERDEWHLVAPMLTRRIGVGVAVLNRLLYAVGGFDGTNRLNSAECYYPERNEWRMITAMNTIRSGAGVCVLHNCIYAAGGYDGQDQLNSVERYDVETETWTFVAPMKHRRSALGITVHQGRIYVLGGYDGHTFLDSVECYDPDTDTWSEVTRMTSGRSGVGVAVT

Structure (SMILES)	solubility (physchem) [µg/mL]	further results
CCOc1cc(N(CC(=O)O)S(=O)(=O)c2ccc(OC)cc2)ccc1N(CC(=O)O)S(=O)(=O)c1ccc(OC)cc1 [Compound 31, 2,2′-((2-Ethoxy-1,4-phenylene)bis(((4-methoxyphenyl)sulfonyl)azanediyl))diacetic Acid]	337 (≈ 554 µM)	–
CCCOc1cc(N(CC(=O)O)S(=O)(=O)c2ccc(OC)cc2)ccc1N(CC(=O)O)S(=O)(=O)c1ccc(OC)cc1 [Compound 36, 2,2′-((2-Propoxy-1,4-phenylene)bis(((4-methoxyphenyl)sulfonyl)azanediyl))diacetic Acid]	347 (≈ 557 µM)	–
COc1ccc(S(=O)(=O)N(CC(=O)O)c2ccc(N(CC(=O)O)S(=O)(=O)c3ccc(OC)cc3)c(OCc3ccccc3)c2)cc1 [Compound 11, 2,2′-((2-(Benzyloxy)-1,4-phenylene)bis(((4-methoxyphenyl)sulfonyl)azanediyl))diacetic Acid]	348 (≈ 519 µM)	–
COc1ccc(S(=O)(=O)N(Cc2nnn[nH]2)c2ccc(N(CC(=O)O)S(=O)(=O)c3ccc(OC)cc3)c(OCc3ccccc3)c2)cc1 [Compound 51, N-(4-((N-((1H-Tetrazol-5-yl)methyl)-4-methoxyphenyl)sulfonamido)-2-(benzyloxy)phenyl)-N-((4-methoxyphenyl)sulfonyl)glycine]	254 (≈ 366 µM)	–
COc1ccc(S(=O)(=O)N(CC(=O)O)c2ccc(N(CC(=O)O)S(=O)(=O)c3ccc(OC)cc3)c(-c3ccccc3)c2)cc1 [Compound 34, 2,2′-([1,1′-Biphenyl]-2,5-diylbis(((4-methoxyphenyl)sulfonyl)azanediyl))diacetic Acid]	298 (≈ 465 µM)	DSF ΔTi [1]: 0.1–1.2 °C
COc1ccc(S(=O)(=O)N(CC(=O)O)c2ccc(N(CC(=O)O)S(=O)(=O)c3ccc(OC)cc3)c(OCc3cccc(OC)c3)c2)cc1 [Compound 38, 2,2′-((2-((3-Methoxybenzyl)oxy)-1,4-phenylene)bis(((4-methoxyphenyl)sulfonyl)azanediyl))diacetic Acid]	379 (≈ 541 µM)	–
COc1ccc(S(=O)(=O)N(CC(=O)O)c2ccc(N(CC(=O)O)S(=O)(=O)c3ccc(OC)cc3)c(Oc3ccccc3)c2)cc1 [Compound 33, 2,2′-((2-Phenoxy-1,4-phenylene)bis(((4-methoxyphenyl)sulfonyl)azanediyl))diacetic Acid]	363 (≈ 553 µM)	–
COC(=O)/C=C/C(=O)OC [DMF, dimethyl fumarate]	–	NQO1 induction, concentration-response [2]: Dose-dependent induction
COc1ccc(S(=O)(=O)N(CC(N)=O)c2ccc(N(CC(N)=O)S(=O)(=O)c3ccc(OC)cc3)c(OCc3ccccc3)c2)cc1 [Compound 40, 2,2′-((2-(Benzyloxy)-1,4-phenylene)bis(((4-methoxyphenyl)sulfonyl)azanediyl))diacetamide]	< 50	–
CCCCOc1cc(N(CC(=O)O)S(=O)(=O)c2ccc(OC)cc2)ccc1N(CC(=O)O)S(=O)(=O)c1ccc(OC)cc1 [Compound 32, 2,2′-((2-Butoxy-1,4-phenylene)bis(((4-methoxyphenyl)sulfonyl)azanediyl))diacetic Acid]	362 (≈ 569 µM)	–
COC(=O)[C@]12CCC(C)(C)C[C@H]1[C@H]1C(=O)C=C3[C@@]4(C)C=C(C#N)C(=O)C(C)(C)[C@@H]4CC[C@@]3(C)[C@]1(C)CC2 [CDDO-Me, bardoxolone methyl]	–	NQO1 induction, concentration-response [2]: Dose-dependent induction; Concentration above which cytotoxic in NQO1 assay [3]: higher than 1 μM
COc1ccc(S(=O)(=O)N(CC(=O)O)c2ccc(N(CC(=O)O)S(=O)(=O)c3ccc(OC)cc3)c(OC(C)C)c2)cc1 [Compound 37, 2,2′-((2-Isopropoxy-1,4-phenylene)bis(((4-methoxyphenyl)sulfonyl)azanediyl))diacetic Acid]	288 (≈ 463 µM)	logPe (permeability coefficient) [4]: -4.74
COc1ccc(S(=O)(=O)N(CC(=O)O)c2ccc(N(CC(=O)O)S(=O)(=O)c3ccc(OC)cc3)c(OC)c2)cc1 [Compound 10, 2,2′-((2-Methoxy-1,4-phenylene)bis(((4-methoxyphenyl)sulfonyl)azanediyl))diacetic Acid]	271 (≈ 456 µM)	–
COc1ccc(S(=O)(=O)N(CC(=O)O)c2ccc(N(Cc3nnn[nH]3)S(=O)(=O)c3ccc(OC)cc3)c(OCc3ccccc3)c2)cc1 [Compound 52, N-(4-((N-((1H-Tetrazol-5-yl)methyl)-4-methoxyphenyl)sulfonamido)-3-(benzyloxy)phenyl)-N-((4-methoxyphenyl)sulfonyl)glycine]	256 (≈ 368 µM)	–
COc1ccc(S(=O)(=O)N(CC(=O)O)c2ccc(N(CC(=O)O)S(=O)(=O)c3ccc(OC)cc3)c(O)c2)cc1 [Compound 39, 2,2′-((2-Hydroxy-1,4-phenylene)bis(((4-methoxyphenyl)sulfonyl)azanediyl))diacetic Acid]	343 (≈ 591 µM)	–
COc1ccc(S(=O)(=O)N(CC#N)c2ccc(N(CC#N)S(=O)(=O)c3ccc(OC)cc3)c(OCc3ccccc3)c2)cc1 [Compound 41, N,N′-[2-(Benzyloxy)-1,4-phenylene]bis[N-(cyanomethyl)-4-methoxybenzenesulfonamide]]	< 50	logPe (permeability coefficient) [4]: -4.19
C[S+]([O-])CCCCN=C=S (centres unmarked) [Sulforaphane, sulforaphane]	–	IC50 [5]: ~10 µM; IC50 (in vitro): 9.89 ± 2.91 µM
COc1ccc(S(=O)(=O)N(Cc2nnn[nH]2)c2ccc(N(Cc3nnn[nH]3)S(=O)(=O)c3ccc(OC)cc3)c(OCc3ccccc3)c2)cc1 [Compound 42, N-((1H-Tetrazol-5-yl)methyl)-N-(4-((N-((1H-tetrazol-5-yl)methyl)-4-methoxyphenyl)sulfonamido)-2-(benzyloxy)phenyl)-4-methoxybenzenesulfonamide]	< 50	–
